In patent US11572373B2, “Maytansinoid-based drug delivery systems” (LADRX CORPORATION, priority 2017, dated 2023):

Test: In vitro cytotoxicity in different cell lines using the CellTiter-Blue Cell Viability Assay
Assay type: cell-based, human
Conditions: Homo sapiens, 96 h, read-out: Geomean IC50

COc1cc2cc(c1Cl)N(C)C(=O)C[C@H](OC(=O)Cc1ccc(C(C)=O)c(F)c1)[C@]1(C)O[C@H]1[C@H](C)[C@@H]1C[C@@](O)(NC(=O)O1)[C@H](OC)/C=C/C=C(\C)C2 [Compound 5] and COc1cc2cc(c1Cl)N(C)C(=O)C[C@H](OC(=O)Cc1ccc(C(C)=O)c([N+](=O)[O-])c1)[C@]1(C)O[C@H]1[C@H](C)[C@@H]1C[C@@](O)(NC(=O)O1)[C@H](OC)/C=C/C=C(\C)C2 [Compound 7] are within 1.5-fold of each other in IC50: 0.9 nM for the first, 0.89 nM for the second.

COc1cc2cc(c1Cl)N(C)C(=O)C[C@H](OC(=O)Cc1ccc(C(C)=O)cc1[N+](=O)[O-])[C@]1(C)O[C@H]1[C@H](C)[C@@H]1C[C@@](O)(NC(=O)O1)[C@H](OC)/C=C/C=C(\C)C2 [Compound 6] and COc1cc2cc(c1Cl)N(C)C(=O)C[C@H](OC(=O)CSc1ccc(C(C)=O)cc1[N+](=O)[O-])[C@]1(C)O[C@H]1[C@H](C)[C@@H]1C[C@@](O)(NC(=O)O1)[C@H](OC)/C=C/C=C(\C)C2 [Compound 14] are within 1.5-fold of each other in IC50: 2.14 nM for the first, 1.54 nM for the second.

First: COc1cc2cc(c1Cl)N(C)C(=O)C[C@H](OC(=O)CCCc1ccc(C(C)=O)cc1)[C@]1(C)O[C@H]1[C@H](C)[C@@H]1C[C@@](O)(NC(=O)O1)[C@H](OC)/C=C/C=C(\C)C2 [Compound 8]
Second: COc1cc2cc(c1Cl)N(C)C(=O)C[C@H](OC(=O)CCc1ccc(C(C)=O)cc1)[C@]1(C)O[C@H]1[C@H](C)[C@@H]1C[C@@](O)(NC(=O)O1)[C@H](OC)/C=C/C=C(\C)C2 [Compound 9]
The IC50 of the first is 1.9-fold lower: 0.1 nM for the first, 0.19 nM for the second. The first is the more potent here.

Going from COc1cc2cc(c1Cl)N(C)C(=O)C[C@H](OC(=O)CN(C)c1ccc(C(C)=O)cc1)[C@]1(C)O[C@H]1[C@H](C)[C@@H]1C[C@@](O)(NC(=O)O1)[C@H](OC)/C=C/C=C(\C)C2 [Compound 10] to COc1cc2cc(c1Cl)N(C)C(=O)C[C@H](OC(=O)CN(C)C(=O)c1ccc(C(C)=O)cc1)[C@]1(C)O[C@H]1[C@H](C)[C@@H]1C[C@@](O)(NC(=O)O1)[C@H](OC)/C=C/C=C(\C)C2 [Compound 25], the IC50 rises from 0.3 nM to 8.47 nM (28-fold). The first is the more potent here.

First: COc1cc2cc(c1Cl)N(C)C(=O)C[C@H](OC(=O)CSc1ccc(C(C)=O)cc1)[C@]1(C)O[C@H]1[C@H](C)[C@@H]1C[C@@](O)(NC(=O)O1)[C@H](OC)/C=C/C=C(\C)C2 [Compound 11]
Second: COc1cc2cc(c1Cl)N(C)C(=O)C[C@H](OC(=O)COc1ccc(C(C)=O)cc1)[C@]1(C)O[C@H]1[C@H](C)[C@@H]1C[C@@](O)(NC(=O)O1)[C@H](OC)/C=C/C=C(\C)C2 [Compound 18]
The IC50 of the first is 1.6-fold higher: 0.21 nM for the first, 0.13 nM for the second.

First: COc1cc2cc(c1Cl)N(C)C(=O)C[C@H](OC(=O)CSc1ccc(C(C)=O)cc1C)[C@]1(C)O[C@H]1[C@H](C)[C@@H]1C[C@@](O)(NC(=O)O1)[C@H](OC)/C=C/C=C(\C)C2 [Compound 12]
Second: COc1cc2cc(c1Cl)N(C)C(=O)C[C@H](OC(=O)CSc1ccc(C(C)=O)cc1Cl)[C@]1(C)O[C@H]1[C@H](C)[C@@H]1C[C@@](O)(NC(=O)O1)[C@H](OC)/C=C/C=C(\C)C2 [Compound 15]
The IC50 of the first is 4.2-fold higher: 0.76 nM for the first, 0.18 nM for the second.

Compared with COc1cc2cc(c1Cl)N(C)C(=O)C[C@H](OC(=O)CSc1ccc(C(C)=O)cc1C(F)(F)F)[C@]1(C)O[C@H]1[C@H](C)[C@@H]1C[C@@](O)(NC(=O)O1)[C@H](OC)/C=C/C=C(\C)C2 [Compound 13], COc1cc2cc(c1Cl)N(C)C(=O)C[C@H](OC(=O)CSc1ccc(C(C)=O)cc1Br)[C@]1(C)O[C@H]1[C@H](C)[C@@H]1C[C@@](O)(NC(=O)O1)[C@H](OC)/C=C/C=C(\C)C2 [Compound 16] is 2.8-fold lower in IC50: 0.88 nM for the first, 0.32 nM for the second. The second is the more potent here.

First: COc1cc(C(C)=O)ccc1SCC(=O)O[C@H]1CC(=O)N(C)c2cc(cc(OC)c2Cl)C/C(C)=C/C=C/[C@@H](OC)[C@@]2(O)C[C@H](OC(=O)N2)[C@@H](C)[C@@H]2O[C@@]12C [Compound 17]
Second: COc1cc2cc(c1Cl)N(C)C(=O)C[C@H](OC(=O)CN(C)C(=O)c1ccc(C(C)=O)nc1)[C@]1(C)O[C@H]1[C@H](C)[C@@H]1C[C@@](O)(NC(=O)O1)[C@H](OC)/C=C/C=C(\C)C2 [Compound 26]
The IC50 of the first is 41-fold lower: 0.45 nM for the first, 18.5 nM for the second. The first is the more potent here.

Compared with COc1cc2cc(c1Cl)N(C)C(=O)C[C@H](OC(=O)C(C)(C)Oc1ccc(C(C)=O)cc1)[C@]1(C)O[C@H]1[C@H](C)[C@@H]1C[C@@](O)(NC(=O)O1)[C@H](OC)/C=C/C=C(\C)C2 [Compound 19], COc1cc2cc(c1Cl)N(C)C(=O)C[C@H](OC(=O)Nc1ccc(C(C)=O)cc1)[C@]1(C)O[C@H]1[C@H](C)[C@@H]1C[C@@](O)(NC(=O)O1)[C@H](OC)/C=C/C=C(\C)C2 [Compound 28] is 9.5-fold higher in IC50: 1.12 nM for the first, 10.6 nM for the second. The first is the more potent here.

Compared with COc1cc2cc(c1Cl)N(C)C(=O)C[C@H](OC(=O)C1CCCN1C(=O)c1ccc(C(C)=O)cc1)[C@]1(C)O[C@H]1[C@H](C)[C@@H]1C[C@@](O)(NC(=O)O1)[C@H](OC)/C=C/C=C(\C)C2 (some centres unmarked) [Compound 20], COc1cc2cc(c1Cl)N(C)C(=O)C[C@H](OC(=O)C1CCCN1C(=O)Nc1ccc(C(C)=O)cc1)[C@]1(C)O[C@H]1[C@H](C)[C@@H]1C[C@@](O)(NC(=O)O1)[C@H](OC)/C=C/C=C(\C)C2 (some centres unmarked) [Compound 23] is 29-fold higher in IC50: 0.94 nM for the first, 26.8 nM for the second. The first is the more potent here.

Compared with COc1cc2cc(c1Cl)N(C)C(=O)C[C@H](OC(=O)CNC(=O)c1ccc(C(C)=O)cc1)[C@]1(C)O[C@H]1[C@H](C)[C@@H]1C[C@@](O)(NC(=O)O1)[C@H](OC)/C=C/C=C(\C)C2 [Compound 21], COc1cc2cc(c1Cl)N(C)C(=O)C[C@H](OC(=O)CCNC(=O)c1ccc(C(C)=O)cc1)[C@]1(C)O[C@H]1[C@H](C)[C@@H]1C[C@@](O)(NC(=O)O1)[C@H](OC)/C=C/C=C(\C)C2 [Compound 27] is 7-fold higher in IC50: 1.67 nM for the first, 11.7 nM for the second. The first is the more potent here.

Going from CCN(CC(=O)O[C@H]1CC(=O)N(C)c2cc(cc(OC)c2Cl)C/C(C)=C/C=C/[C@@H](OC)[C@@]2(O)C[C@H](OC(=O)N2)[C@@H](C)[C@@H]2O[C@@]12C)C(=O)c1ccc(C(C)=O)cc1 [Compound 22] to COc1cc2cc(c1Cl)N(C)C(=O)C[C@H](OC(=O)[C@H](C)N(C)C(=O)c1ccc(C(C)=O)cc1)[C@]1(C)O[C@H]1[C@H](C)[C@@H]1C[C@@](O)(NC(=O)O1)[C@H](OC)/C=C/C=C(\C)C2 [Compound 24], the IC50 falls from 25 nM to 9.04 nM (2.8-fold).

COc1cc2cc(c1Cl)N(C)C(=O)C[C@H](OC(=O)[C@H](C)N(C)C(=O)CCC(C)=O)[C@]1(C)O[C@H]1[C@H](C)[C@@H]1C[C@@](O)(NC(=O)O1)[C@H](OC)/C=C/C=C(\C)C2 [Compound 44] gave an IC50 of 7.21 nM.

Same assay, conditions: Homo sapiens; geometric mean over the n cell lines tested, 96 h treatment, CellTiter-Blue; read-out: Geomean IC50

COc1cc2cc(c1Cl)N(C)C(=O)CC(O)C1(C)OC1C(C)C1CC(O)(NC(=O)O1)C(OC)/C=C/C=C(\C)C2 (centres unmarked) [Maytansinol, reference compound] showed an IC50 of 86 nM.
